{"source": "PubChem BioAssay AID1963450", "about": "(Molecular Pharmacology Branch, DTP, NCI, 2024);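 further: spheroids exposed to agents for 7 days before viability read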", "test_system": "556581-035-R-J1-PDC complex spheroid growth", "experiment": "Anticancer human tumor 556581-035-R-J1-PDC patient-derived ovarian carcinoma cell line growth inhibition [Asc]", "details": "for IC50: curve of first compound; for viability, T/C: stronger effect = lower value", "experimental": "Multicellular complex tumor spheroid response to apoptosis pathway targeting inhibitors Alrizomadlin, Pelcitoclax, and Dasminapant in combination with a variety of drugs and investigational agents in selected tumor cell lines\nThe MDM2 inhibitor alrizomadlin, the Bcl-2/Bcl-xL inhibitor pelcitoclax, and the IAPs inhibitor dasminapant were evaluated both individually and in combination with standard of care and investigational anticancer small molecules within a complex spheroid model of solid tumors. . Complex spheroids include a stromal component modeled by human endothelial cells (HUVEC) and fibroblasts modeled by human mesenchymal stem cells (MSCs). The concentration ranges selected for each drug and investigational agent were based upon clinically achievable concentrations if the clinical Cmax of the agent was known.\nCompounds. The drugs and investigational agents: alrizomadlin (APG-115; NSC831270), pelcitoclax (APG-1252; NSC835773), dasminapant (APG-1387;NSC834197), TAK-243 (NSC785004), copanlisib (NSC809693), olaparib (NSC753686), talazoparib (NSC767125), cobimetinib (NSC 768068), eltanexor (KPT-8602, NSC 794443), abemaciclib (NSC 768073), sotorasib (NSC818433), adagrasib (NSC 831453), MRTX-1133 (NSC 836407), Iadademestat (ORY1001, NSC 806812), and RMC-4630 (NSC839698), were obtained from the NCI Developmental Therapeutics Program Chemical Repository. The FDA-approved anticancer drug set is available from the Developmental Therapeutics Program at https://dtp.cancer.gov/organization/dscb/obtaining/available plates.htm. […] The stock solutions were prepared in dimethyl sulfoxide (DMSO, Sigma-Aldrich, St. Louis, MO, cat. D2650) at 800-fold the tested concentration and stored at -70 degrees C prior to their use. All drugs and investigational agents were tested over a range starting from a high concentration at or near the clinical Cmax and decreasing in half-log increments. If the clinical Cmax for an agent had not been determined, the highest concentration tested was 10 microM.\nThe patient-derived cancer (PDC) cell lines include five colon adenocarcinomas: 186277-243-T-J2-PDC, 616215-338-R-J1-PDC, 439559-082-T-J2-PDC, 463943-066-T-J2-PDC, and 519858-162-T-J1-PDC; three pancreatic carcinomas: 323965-272-R-J2-PDC, 521955-158-R6-J3-PDC, and 521955-158-R2-J5-PDC; two uterine sarcomas: 327498-152-R-J2-PDC and 993429-296-R-J1-PDC; two rhabdomyosarcomas: 755483-174-R-J1-PDC and 772245-204-R-J1-PDC; two soft tissue sarcomas: 126254-015-R-J1-PDC and 494315-158-R-J1-PDC; two malignant fibrous histiocytomas: 317291-083-R-J1-PDC and 596521-263-R-J1-PDC; two breast carcinomas: 171881-019-R-J1-PDC and 885512-296-R-J2-PDC; and one ovarian carcinoma: 6556581-035-R-J-PDC were obtained from the NCI PDMR, (https://pdmr.cancer.gov). The established cell lines HSSY-2 synovial sarcoma (RRID:CVCL 8719), SYO-1 synovial sarcoma (RRID:CVCL_7146), MPNST malignant peripheral neural sheath tumor were obtained from the Sloan Kettering Institute. The following established cell lines were purchased from the American Type Culture Collection (ATCC, Manassas, VA), Sor the received from the NCI repository:, PANC-1 pancreatic carcinoma (CRL-1469, RRID:CVCL_0480), OVCAR-5 ovarian carcinoma (RRID:CVCL_1628), OVCAR-8 ovarian carcinoma (RRID:CVCL_1629), , MCF-7 breast carcinoma (CRL-12584, RRID:CVCL_0031), MDA-MB-231 breast carcinoma (CRL-12532, RRID:CVCL_0062), NCI-H1876 small cell lung carcinoma (CRL-5902, RRID:CVCL_1503), NCI-H510A small cell lung carcinoma (HTB-184, RRID:CVCL_1565), NCI-H1417 (CRL-5869, RRID:CVCL_1469), and NCI-H196 small cell lung carcinoma (CRL-5823, RRID:CVCL_1509). Dr. Peter Houghton (Greehey Children's Cancer Research Institute, University of Texas Health Science Center, San Antonio, TX) provided Rh-18 rhabdomyosarcoma (RRID:CVCL_1659). Pooled donor human umbilical vein endothelial cells (HUVEC, Lonza, cat. CC-2519) and human mesenchymal stem cells (hMSC, Lonza, cat. PT-2501) were purchased from Lonza (Walkersville, MD).\nCell Culture. […]", "data": [{"smiles": "Cn1ncnc1[C@H]1c2n[nH]c(=O)c3cc(F)cc(c23)N[C@@H]1c1ccc(F)cc1", "note": "+ CCN1C(C(=O)NC23CCC(C(=O)O)(CC2)CC3)C(c2cccc(Cl)c2F)C2(C(=O)Nc3cc(Cl)ccc32)C12CCCCC2", "values": [{"measurement": "IC50", "setting": "second compound 0.03 µM", "value": "> 100", "unit": "nM"}, {"measurement": "IC50", "setting": "second compound 0.0949 µM", "value": "> 100", "unit": "nM"}, {"measurement": "IC50", "setting": "second compound 0.3 µM", "value": "> 100", "unit": "nM"}, {"measurement": "IC50", "setting": "second compound 0.949 µM", "value": "> 100", "unit": "nM"}, {"measurement": "IC50", "setting": "second compound 3 µM", "value": "> 100", "unit": "nM"}, {"measurement": "viability, T/C", "setting": "second compound 0.03 µM, first compound 0.000316 µM", "value": 110, "unit": "%"}, {"measurement": "viability, T/C", "setting": "second compound 0.03 µM, first compound 0.001 µM", "value": 102, "unit": "%"}, {"measurement": "viability, T/C", "setting": "second compound 0.03 µM, first compound 0.00316 µM", "value": 94.4, "unit": "%"}, {"measurement": "viability, T/C", "setting": "second compound 0.03 µM, first compound 0.01 µM", "value": 87.7, "unit": "%"}, {"measurement": "viability, T/C", "setting": "second compound 0.03 µM, first compound 0.0316 µM", "value": 94.3, "unit": "%"}, {"measurement": "viability, T/C", "setting": "second compound 0.03 µM, first compound 0.1 µM", "value": 95.2, "unit": "%"}, {"measurement": "viability, T/C", "setting": "second compound 0.0949 µM, first compound 0.000316 µM", "value": 105, "unit": "%"}, {"measurement": "viability, T/C", "setting": "second compound 0.0949 µM, first compound 0.001 µM", "value": 100, "unit": "%"}, {"measurement": "viability, T/C", "setting": "second compound 0.0949 µM, first compound 0.00316 µM", "value": 116, "unit": "%"}, {"measurement": "viability, T/C", "setting": "second compound 0.0949 µM, first compound 0.01 µM", "value": 96.1, "unit": "%"}, {"measurement": "viability, T/C", "setting": "second compound 0.0949 µM, first compound 0.0316 µM", "value": 94.9, "unit": "%"}, {"measurement": "viability, T/C", "setting": "second compound 0.0949 µM, first compound 0.1 µM", "value": 92.3, "unit": "%"}, {"measurement": "viability, T/C", "setting": "second compound 0.3 µM, first compound 0.000316 µM", "value": 102, "unit": "%"}, {"measurement": "viability, T/C", "setting": "second compound 0.3 µM, first compound 0.001 µM", "value": 130, "unit": "%"}, {"measurement": "viability, T/C", "setting": "second compound 0.3 µM, first compound 0.00316 µM", "value": 97.2, "unit": "%"}, {"measurement": "viability, T/C", "setting": "second compound 0.3 µM, first compound 0.01 µM", "value": 107, "unit": "%"}, {"measurement": "viability, T/C", "setting": "second compound 0.3 µM, first compound 0.0316 µM", "value": 87.1, "unit": "%"}, {"measurement": "viability, T/C", "setting": "second compound 0.3 µM, first compound 0.1 µM", "value": 83.4, "unit": "%"}, {"measurement": "viability, T/C", "setting": "second compound 0.949 µM, first compound 0.000316 µM", "value": 109, "unit": "%"}, {"measurement": "viability, T/C", "setting": "second compound 0.949 µM, first compound 0.001 µM", "value": 93.8, "unit": "%"}, {"measurement": "viability, T/C", "setting": "second compound 0.949 µM, first compound 0.00316 µM", "value": 102, "unit": "%"}, {"measurement": "viability, T/C", "setting": "second compound 0.949 µM, first compound 0.01 µM", "value": 96.6, "unit": "%"}, {"measurement": "viability, T/C", "setting": "second compound 0.949 µM, first compound 0.0316 µM", "value": 90.6, "unit": "%"}, {"measurement": "viability, T/C", "setting": "second compound 0.949 µM, first compound 0.1 µM", "value": 92.7, "unit": "%"}, {"measurement": "viability, T/C", "setting": "second compound 3 µM, first compound 0.000316 µM", "value": 97, "unit": "%"}, {"measurement": "viability, T/C", "setting": "second compound 3 µM, first compound 0.001 µM", "value": 94.8, "unit": "%"}, {"measurement": "viability, T/C", "setting": "second compound 3 µM, first compound 0.00316 µM", "value": 78.7, "unit": "%"}, {"measurement": "viability, T/C", "setting": "second compound 3 µM, first compound 0.01 µM", "value": 87, "unit": "%"}, {"measurement": "viability, T/C", "setting": "second compound 3 µM, first compound 0.0316 µM", "value": 84, "unit": "%"}, {"measurement": "viability, T/C", "setting": "second compound 3 µM, first compound 0.1 µM", "value": 86.8, "unit": "%"}]}]}
